Measurements from ChEMBL document CHEMBL1649492, “Population modeling and Monte Carlo simulation study of the pharmacokinetics and antituberculosis pharmacodynamics of rifampin in lungs” (Antimicrob Agents Chemother, 2009).
Where “and” joins values, the source holds several entries; their conditions need not be identical. Equal values may be shown once.

Legend:
Homo sapiens = test: Volume of distribution in patient with tuberculosis at […], po administered as single dose; format: ADME, organism-based; design: route oral; conditions: in vivo
[1] = Volume of distribution in epithelial lining fluid of patient with tuberculosis at […], po administered as single dose; format: ADME, organism-based; design: route oral; conditions: human, in vivo
[2] = Volume of distribution in alveolar cells of patient with tuberculosis at […], po administered as single dose; format: ADME, organism-based, Pneumocyte; design: route oral; conditions: human, in vivo
[3] = Ratio of AUC (0 to 24 hrs) to MIC in plasma of patient with Mycobacterium tuberculosis infection at […], po administered as single dose; format: functional
[4] = Ratio of AUC (0 to 24 hrs) to MIC in epithelial lining fluid of patient with Mycobacterium tuberculosis infection at […], po administered as single dose; format: functional

With `CO[C@H]1/C=C/O[C@@]2(C)Oc3c(C)c(O)c4c(O)c(c(/C=N/N5CCN(C)CC5)c(O)c4c3C2=O)NC(=O)/C(C)=C\C=C\[C@H](C)[C@H](O)[C@@H](C)[C@@H](O)[C@@H](C)[C@H](OC(C)=O)[C@@H]1C` [RIFAMPIN] the Vd (Homo sapiens) was 11.56 L and 10.16 L and 8.05 L, the Vd [1] was 102.6 L and 102.8 L and 52.1 L and the Vd [2] was 49.94 L and 43.66 L and 33.65 L. For the same compound, the RatioAUC/MIC [3] was “>=271” and the RatioAUC/MIC [4] was “>=665”.
